Assays:
[1] = tested on: human peripheral blood mononuclear cells; test: Induction of IL-2 production of PHA-M-stimulated human peripheral blood mononuclear cells (Example 2); type: cell-based; details: PHA-M 5 μg/ml, 3 days, ELISA (FIG. 3)
Procedure: Human peripheral blood mononuclear cells were introduced into a human complete medium (i.e., RPMI-1640 supplemented with 10% heat-inactivated FBS, 100 U/ml penicillin, and 100 μg/ml streptomycin) to prepare a cell suspension (1×10^6 cells/ml). Phytohemagglutinin M (PHA-M) was added thereto to the final concentration of 5 μg/ml, and Compound (I) or an EGFR tyrosine kinase inhibitor (AZD9291) was further added thereto to each final concentration. This culture solution was seeded in a 96-well plate at 200 μl/well and then cultured in an incubator at 37° C. in the presence of 5% CO2 for 3 days. The culture supernatant was recovered, and the concentration of IL-2 therein was measured via ELISA using the anti-hIL-2 antibody.

[2] = tested on: mouse spleen cells; test: Excitation of T cell growth, CFSE flow cytometry of CD4- and CD8-positive spleen cells (Example 4); type: cell-based; details: anti-CD3 1 μg/ml and anti-CD28 1 μg/ml, 3 days; comparators at 0.1 μM (FIG. 5)
Procedure: The mouse spleen was extracted, grinded with glass slides with frosted areas, and then subjected to hemolysis, so as to obtain spleen cells. The spleen cells were suspended in 5 ml of a staining buffer (0.5% BSA, 2 mM EDTA, PBS(-)), and the cells were stained with 5 μM CFSE (5-carboxyfluorescein succinimidyl ester). Thereafter, the stained cells were washed with an ice-cooled complete medium (RPMI-1640). The CFSE-stained spleen cells were introduced into a complete medium (i.e., RPMI-1640 supplemented with 10% heat-inactivated FBS, 100 U/ml penicillin, 100 μg/ml streptomycin, and 55 μM 2-mercaptoethanol) to prepare a cell suspension (1×10^6 cells/ml), the anti-CD3 antibody and the anti-CD28 antibody were added at 1 μg/ml and 1 μg/ml, respectively, and Compound (I) adjusted to various concentrations or the EGFR tyrosine kinase inhibitor (i.e., AZD09291, Erlotinib, Co1686 (Rociletinib), Ibrutinib, Sunitinib, or Dasatinib) was added at 0.1 μM. […] These culture solutions were seeded in a 96-well plate at 200 μl/well and then cultured in an incubator at 37° C. in the presence of 5% CO2 for 3 days. The cells were recovered and stained with the anti-CD4 antibody and the anti-CD8 antibody. The amounts of CFSE in CD4- and CD8-positive cells were analyzed via flow cytometry.
Once CFSE is incorporated into a cell, the amount thereof is kept constant in the cell. Since the amount of CFSE per cell decreases by half upon cell division, according to flow cytometric analysis, the intensity of CFSE staining is attenuated and is shifted toward left (i.e., lower level) in the chart, as cell division proceeds. […] In the case of the samples to which other types of EGFR tyrosine kinase inhibitors had been added, in contrast, no such activity for enhancing the cell growth was observed.

C=CC(=O)N[C@H]1CCc2c(-c3cnc4ccccc4c3)c3c(N)ncnc3n2C1 [Compound (I), (S)—N-(4-amino-5-(quinolin-3-yl)-6,7,8,9-tetrahydropyrimido[5,4-b]indolizin-8-yl)acrylamide]
concentration of IL-2 produced by human peripheral blood mononuclear cells in the culture supernatant [1]: induced IL-2 production
amount of CFSE per CD4-positive cell (cell growth) [2]: decreases
amount of CFSE per CD8-positive cell (cell growth) [2]: decreases

From patent publication US20170202838A1, “IMMUNOMODULATOR” (TAIHO PHARMACEUTICAL CO., LTD., priority 2015, published 2017)
